ChEMBL document CHEMBL5291721, “A preclinical secondary pharmacology resource illuminates target-adverse drug reaction associations of marketed drugs” (Nat Commun, 2023)

What was measured:
[1] = molecular target: Voltage-dependent L-type calcium channel subunit alpha-1C (Homo sapiens, UniProt Q13936); assay type: functional, cell-based
[2] = molecular target: 3',5'-cyclic-AMP phosphodiesterase 4A (Homo sapiens, UniProt P27815); assay type: functional
D(1A) dopamine receptor [3] = molecular target: T1, D(1A) dopamine receptor (Homo sapiens, UniProt P21728); assay type: functional, cell-based
T1 sequence (P21728 whole entry): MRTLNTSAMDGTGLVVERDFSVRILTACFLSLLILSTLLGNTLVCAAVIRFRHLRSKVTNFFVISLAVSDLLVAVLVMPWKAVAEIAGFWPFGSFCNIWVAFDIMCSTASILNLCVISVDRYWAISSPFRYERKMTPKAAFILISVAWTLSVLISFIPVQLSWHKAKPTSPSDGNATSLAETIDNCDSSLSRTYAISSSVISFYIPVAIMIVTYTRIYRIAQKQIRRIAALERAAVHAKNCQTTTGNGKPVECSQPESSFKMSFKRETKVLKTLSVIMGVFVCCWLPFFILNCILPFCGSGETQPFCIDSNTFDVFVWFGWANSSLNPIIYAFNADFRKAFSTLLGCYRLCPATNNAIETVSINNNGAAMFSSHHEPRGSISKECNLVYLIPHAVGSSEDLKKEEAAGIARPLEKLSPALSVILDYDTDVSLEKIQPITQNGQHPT

[4] = molecular target: T2, Muscarinic acetylcholine receptor M1 (Homo sapiens, UniProt P11229); assay type: functional, cell-based
T2 sequence (P11229 whole entry): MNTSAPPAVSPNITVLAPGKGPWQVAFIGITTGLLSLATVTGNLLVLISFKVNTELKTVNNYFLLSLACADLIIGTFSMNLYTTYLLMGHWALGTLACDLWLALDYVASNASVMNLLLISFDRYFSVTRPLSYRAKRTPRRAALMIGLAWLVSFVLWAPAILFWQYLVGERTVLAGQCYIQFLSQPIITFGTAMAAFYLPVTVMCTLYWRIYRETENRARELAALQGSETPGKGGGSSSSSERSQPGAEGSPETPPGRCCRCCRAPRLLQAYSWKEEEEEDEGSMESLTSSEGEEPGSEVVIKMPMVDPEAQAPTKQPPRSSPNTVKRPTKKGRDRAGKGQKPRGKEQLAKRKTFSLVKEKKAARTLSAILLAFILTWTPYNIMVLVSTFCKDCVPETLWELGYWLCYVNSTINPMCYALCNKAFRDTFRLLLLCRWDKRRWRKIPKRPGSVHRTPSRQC

[5] = molecular target: T2, Muscarinic acetylcholine receptor M1; assay type: functional, cell-based; remark: listed apart in the source
D(1A) dopamine receptor [6] = molecular target: T1, D(1A) dopamine receptor
[7] = molecular target: T3, Muscarinic acetylcholine receptor M2 (Homo sapiens, UniProt P08172)
T3 sequence (P08172 whole entry): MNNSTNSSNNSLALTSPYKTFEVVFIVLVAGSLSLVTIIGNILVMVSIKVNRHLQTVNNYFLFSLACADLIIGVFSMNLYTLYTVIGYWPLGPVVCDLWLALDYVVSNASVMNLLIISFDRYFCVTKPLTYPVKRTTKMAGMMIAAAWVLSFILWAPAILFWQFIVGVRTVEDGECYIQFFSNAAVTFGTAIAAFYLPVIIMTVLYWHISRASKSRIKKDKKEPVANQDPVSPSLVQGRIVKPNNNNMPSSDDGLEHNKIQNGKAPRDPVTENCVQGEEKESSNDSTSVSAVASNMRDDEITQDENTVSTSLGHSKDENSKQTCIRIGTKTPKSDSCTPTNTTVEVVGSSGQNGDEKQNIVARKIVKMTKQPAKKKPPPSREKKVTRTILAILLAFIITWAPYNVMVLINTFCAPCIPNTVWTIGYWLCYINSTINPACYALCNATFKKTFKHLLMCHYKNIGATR

Estrogen receptor = molecular target: T4, Estrogen receptor (Homo sapiens, UniProt P03372)
T4 sequence (P03372 whole entry): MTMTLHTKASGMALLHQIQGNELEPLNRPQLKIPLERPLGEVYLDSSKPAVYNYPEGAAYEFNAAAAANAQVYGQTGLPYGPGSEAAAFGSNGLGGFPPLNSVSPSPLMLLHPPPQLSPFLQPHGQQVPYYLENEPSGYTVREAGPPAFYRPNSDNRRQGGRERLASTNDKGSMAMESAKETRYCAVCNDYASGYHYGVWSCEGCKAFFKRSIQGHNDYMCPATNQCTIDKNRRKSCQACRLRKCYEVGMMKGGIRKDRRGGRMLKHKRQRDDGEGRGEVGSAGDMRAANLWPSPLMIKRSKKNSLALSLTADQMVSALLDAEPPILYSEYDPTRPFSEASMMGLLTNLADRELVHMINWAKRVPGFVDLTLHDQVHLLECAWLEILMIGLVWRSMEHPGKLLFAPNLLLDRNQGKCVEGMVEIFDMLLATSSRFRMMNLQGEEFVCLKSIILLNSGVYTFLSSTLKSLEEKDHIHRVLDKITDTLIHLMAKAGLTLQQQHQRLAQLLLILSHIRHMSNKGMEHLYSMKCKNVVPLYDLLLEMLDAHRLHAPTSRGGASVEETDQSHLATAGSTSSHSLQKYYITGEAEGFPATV

[8] = molecular target: 5-hydroxytryptamine receptor 2B (Homo sapiens, UniProt P41595); assay type: functional, cell-based
Sequence of 5-hydroxytryptamine receptor 2B (P41595 whole entry): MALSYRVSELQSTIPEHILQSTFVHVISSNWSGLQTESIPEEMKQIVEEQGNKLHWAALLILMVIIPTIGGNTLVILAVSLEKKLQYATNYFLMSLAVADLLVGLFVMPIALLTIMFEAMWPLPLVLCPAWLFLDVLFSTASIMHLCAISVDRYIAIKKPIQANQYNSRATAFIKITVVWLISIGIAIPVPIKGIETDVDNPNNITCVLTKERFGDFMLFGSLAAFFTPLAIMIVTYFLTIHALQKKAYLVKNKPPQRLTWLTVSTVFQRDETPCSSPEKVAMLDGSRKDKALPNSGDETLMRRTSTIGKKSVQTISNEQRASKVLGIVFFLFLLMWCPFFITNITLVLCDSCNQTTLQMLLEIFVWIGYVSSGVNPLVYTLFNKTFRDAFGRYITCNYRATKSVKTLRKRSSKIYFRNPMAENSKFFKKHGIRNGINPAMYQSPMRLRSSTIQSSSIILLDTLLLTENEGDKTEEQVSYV

[9] = molecular target: T5, Prostaglandin G/H synthase 1 (Homo sapiens, UniProt P23219); assay type: functional
T5 sequence (P23219 whole entry): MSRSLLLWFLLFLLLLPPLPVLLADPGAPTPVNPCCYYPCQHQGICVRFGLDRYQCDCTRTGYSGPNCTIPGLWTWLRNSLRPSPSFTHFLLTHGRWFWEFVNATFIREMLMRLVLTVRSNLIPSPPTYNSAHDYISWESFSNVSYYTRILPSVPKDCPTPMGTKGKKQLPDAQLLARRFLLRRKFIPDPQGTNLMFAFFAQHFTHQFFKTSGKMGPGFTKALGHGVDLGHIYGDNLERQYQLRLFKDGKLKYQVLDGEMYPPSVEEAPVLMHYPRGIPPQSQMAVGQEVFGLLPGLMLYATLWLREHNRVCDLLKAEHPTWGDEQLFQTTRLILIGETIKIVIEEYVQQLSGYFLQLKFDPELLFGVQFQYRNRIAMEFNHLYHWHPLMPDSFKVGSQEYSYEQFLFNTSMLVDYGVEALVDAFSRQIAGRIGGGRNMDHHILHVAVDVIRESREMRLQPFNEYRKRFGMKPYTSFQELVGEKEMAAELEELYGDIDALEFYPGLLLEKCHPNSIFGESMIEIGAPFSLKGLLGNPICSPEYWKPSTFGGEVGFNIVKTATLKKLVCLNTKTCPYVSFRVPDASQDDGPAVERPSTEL

[10] = molecular target: T6, Alpha-1A adrenergic receptor (Homo sapiens, UniProt P35348)
T6 sequence (P35348 whole entry): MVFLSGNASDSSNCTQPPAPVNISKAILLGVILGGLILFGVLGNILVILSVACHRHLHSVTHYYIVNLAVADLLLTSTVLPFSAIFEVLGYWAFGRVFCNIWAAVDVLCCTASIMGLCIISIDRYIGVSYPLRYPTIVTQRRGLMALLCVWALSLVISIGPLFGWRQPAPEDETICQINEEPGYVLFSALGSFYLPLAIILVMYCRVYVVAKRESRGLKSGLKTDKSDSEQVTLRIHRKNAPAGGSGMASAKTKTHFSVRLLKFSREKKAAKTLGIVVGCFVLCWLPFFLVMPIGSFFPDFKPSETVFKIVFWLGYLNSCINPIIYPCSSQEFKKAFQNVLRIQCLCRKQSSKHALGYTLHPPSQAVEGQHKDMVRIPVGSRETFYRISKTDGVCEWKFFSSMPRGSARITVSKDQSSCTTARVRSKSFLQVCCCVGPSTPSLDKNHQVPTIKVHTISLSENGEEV

D(1A) dopamine receptor [11] = molecular target: T1, D(1A) dopamine receptor; remark: listed apart in the source
[12] = molecular target: T5, Prostaglandin G/H synthase 1; assay type: functional; remark: listed apart in the source
[13] = molecular target: Sodium-dependent dopamine transporter (Homo sapiens, UniProt Q01959)
Sequence of Sodium-dependent dopamine transporter (Q01959 whole entry): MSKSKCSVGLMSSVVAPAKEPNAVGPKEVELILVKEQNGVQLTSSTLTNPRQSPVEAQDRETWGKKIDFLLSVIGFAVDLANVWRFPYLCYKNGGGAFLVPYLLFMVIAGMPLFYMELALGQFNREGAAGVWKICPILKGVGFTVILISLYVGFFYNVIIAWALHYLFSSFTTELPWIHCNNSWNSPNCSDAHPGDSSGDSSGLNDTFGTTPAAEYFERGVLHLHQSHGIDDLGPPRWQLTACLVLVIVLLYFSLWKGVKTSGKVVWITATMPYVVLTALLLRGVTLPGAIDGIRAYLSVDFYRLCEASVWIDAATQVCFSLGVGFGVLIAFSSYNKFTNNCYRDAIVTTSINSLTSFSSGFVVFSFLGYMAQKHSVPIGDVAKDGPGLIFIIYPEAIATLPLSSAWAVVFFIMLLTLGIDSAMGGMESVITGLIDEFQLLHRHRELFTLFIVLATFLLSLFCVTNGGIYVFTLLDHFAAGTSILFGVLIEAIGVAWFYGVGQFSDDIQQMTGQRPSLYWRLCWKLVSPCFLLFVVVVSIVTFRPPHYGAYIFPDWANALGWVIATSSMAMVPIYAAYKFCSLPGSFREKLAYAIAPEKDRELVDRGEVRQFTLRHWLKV

[14] = molecular target: Sodium-dependent noradrenaline transporter (Homo sapiens, UniProt P23975)
Sequence of Sodium-dependent noradrenaline transporter (P23975 whole entry): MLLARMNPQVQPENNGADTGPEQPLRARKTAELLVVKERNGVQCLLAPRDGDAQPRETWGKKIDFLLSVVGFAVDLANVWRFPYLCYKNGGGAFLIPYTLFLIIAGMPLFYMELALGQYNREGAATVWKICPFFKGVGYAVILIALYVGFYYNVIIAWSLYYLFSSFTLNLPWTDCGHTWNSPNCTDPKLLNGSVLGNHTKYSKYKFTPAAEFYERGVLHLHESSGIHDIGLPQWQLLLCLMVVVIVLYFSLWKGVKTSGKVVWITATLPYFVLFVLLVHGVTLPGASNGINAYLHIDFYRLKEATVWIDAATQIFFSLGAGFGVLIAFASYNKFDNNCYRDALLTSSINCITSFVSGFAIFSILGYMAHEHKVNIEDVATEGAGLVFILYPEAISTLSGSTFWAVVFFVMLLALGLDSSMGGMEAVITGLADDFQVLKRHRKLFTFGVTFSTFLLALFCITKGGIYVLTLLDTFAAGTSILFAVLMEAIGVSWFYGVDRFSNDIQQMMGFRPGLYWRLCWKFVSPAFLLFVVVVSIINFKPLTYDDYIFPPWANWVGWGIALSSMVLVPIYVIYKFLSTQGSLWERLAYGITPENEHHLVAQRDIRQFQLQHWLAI

Mu-type opioid receptor = Mu-type opioid receptor (Homo sapiens, UniProt P35372)
Sequence of Mu-type opioid receptor (P35372 whole entry): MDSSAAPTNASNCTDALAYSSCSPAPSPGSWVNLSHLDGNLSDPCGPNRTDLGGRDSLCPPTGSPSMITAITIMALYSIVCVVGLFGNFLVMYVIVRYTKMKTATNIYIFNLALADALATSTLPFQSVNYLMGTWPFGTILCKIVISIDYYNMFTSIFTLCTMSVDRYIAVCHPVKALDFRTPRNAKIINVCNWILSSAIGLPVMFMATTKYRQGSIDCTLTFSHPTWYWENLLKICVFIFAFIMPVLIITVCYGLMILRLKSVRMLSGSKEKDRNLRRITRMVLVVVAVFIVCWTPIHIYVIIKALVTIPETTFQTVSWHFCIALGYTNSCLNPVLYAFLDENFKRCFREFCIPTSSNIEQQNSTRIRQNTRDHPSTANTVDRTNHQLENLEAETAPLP

D(3) dopamine receptor = D(3) dopamine receptor (Homo sapiens, UniProt P35462)
Sequence of D(3) dopamine receptor (P35462 whole entry): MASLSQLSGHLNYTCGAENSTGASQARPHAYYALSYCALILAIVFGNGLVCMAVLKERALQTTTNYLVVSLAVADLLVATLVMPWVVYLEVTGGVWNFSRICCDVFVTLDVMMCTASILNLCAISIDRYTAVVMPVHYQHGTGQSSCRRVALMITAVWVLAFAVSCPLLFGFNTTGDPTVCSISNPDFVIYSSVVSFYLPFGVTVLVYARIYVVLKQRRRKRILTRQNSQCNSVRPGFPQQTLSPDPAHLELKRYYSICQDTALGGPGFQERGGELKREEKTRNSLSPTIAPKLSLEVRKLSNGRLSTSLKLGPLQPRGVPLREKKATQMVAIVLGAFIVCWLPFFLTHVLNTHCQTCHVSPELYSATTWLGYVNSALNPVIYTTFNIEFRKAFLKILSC
Note: assay procedure not described here.

Sequence of 3',5'-cyclic-AMP phosphodiesterase 4A (P27815 whole entry): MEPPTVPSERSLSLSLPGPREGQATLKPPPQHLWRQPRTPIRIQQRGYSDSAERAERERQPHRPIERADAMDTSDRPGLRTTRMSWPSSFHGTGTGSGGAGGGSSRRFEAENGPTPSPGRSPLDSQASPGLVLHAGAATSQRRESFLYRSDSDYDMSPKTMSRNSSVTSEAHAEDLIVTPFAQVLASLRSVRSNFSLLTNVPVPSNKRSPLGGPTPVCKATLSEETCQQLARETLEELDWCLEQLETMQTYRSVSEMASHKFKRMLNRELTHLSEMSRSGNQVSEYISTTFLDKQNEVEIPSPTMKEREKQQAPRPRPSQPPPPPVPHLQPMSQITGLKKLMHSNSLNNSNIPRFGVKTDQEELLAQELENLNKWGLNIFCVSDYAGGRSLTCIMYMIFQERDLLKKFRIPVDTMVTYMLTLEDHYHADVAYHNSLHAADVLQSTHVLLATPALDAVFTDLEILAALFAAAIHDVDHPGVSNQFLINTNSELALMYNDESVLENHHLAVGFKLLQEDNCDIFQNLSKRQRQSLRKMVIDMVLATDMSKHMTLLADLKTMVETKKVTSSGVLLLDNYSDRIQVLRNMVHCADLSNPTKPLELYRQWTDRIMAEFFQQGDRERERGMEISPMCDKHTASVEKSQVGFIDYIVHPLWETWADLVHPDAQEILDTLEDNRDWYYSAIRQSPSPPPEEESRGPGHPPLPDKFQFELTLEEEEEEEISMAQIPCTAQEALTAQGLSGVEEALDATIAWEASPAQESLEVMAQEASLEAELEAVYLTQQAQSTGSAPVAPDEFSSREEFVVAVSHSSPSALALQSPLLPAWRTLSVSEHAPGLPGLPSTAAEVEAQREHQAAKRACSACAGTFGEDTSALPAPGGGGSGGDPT

N#Cc1ccccc1-c1cc(-c2ccccn2)cn(-c2ccccc2)c1=O
AC50 [1]: > 30 µM

NCCCC(O)(P(=O)(O)O)P(=O)(O)O [ALENDRONIC ACID]
AC50 [2]: > 30 µM

O=C(CCCN1CCC(n2c(O)nc3ccccc32)CC1)c1ccc(F)cc1 [BENPERIDOL]
AC50 (D(1A) dopamine receptor [3]): 7.5 µM

CCN(CC)C(=O)C1CN2CCc3cc(OC)c(OC)cc3C2CC1OC(C)=O (stereo not given) [BENZQUINAMIDE]
AC50 [4]: > 30 µM | AC50 [5]: > 30 µM

CC(C)(C)NCC(O)c1cc(Cl)c(N)c(Cl)c1 (stereo not given) [CLENBUTEROL]
AC50 (D(1A) dopamine receptor [3]): > 30 µM

COC(=O)N[C@@H](C)CNc1nccc(-c2cn(C(C)C)nc2-c2cc(Cl)cc(NS(C)(=O)=O)c2F)n1 [ENCORAFENIB]
AC50 [1]: > 30 µM

C[n+]1ccccc1/C=N/O [PRALIDOXIME]
AC50 [2]: > 30 µM | AC50 (D(1A) dopamine receptor [6]): > 30 µM | AC50 [7]: > 30 µM | AC50 (Estrogen receptor): > 30 µM | AC50 [8]: > 30 µM | AC50 [9]: > 30 µM | AC50 [10]: > 30 µM | AC50 (D(1A) dopamine receptor [11]): > 30 µM | AC50 [12]: > 30 µM | AC50 [13]: > 30 µM | AC50 [14]: > 30 µM | AC50 (Mu-type opioid receptor): > 30 µM | AC50 (D(3) dopamine receptor): > 30 µM

CCCOC(C(=O)OC1CCN(C)CC1)(c1ccccc1)c1ccccc1 [PROPIVERINE]
AC50 [4]: 0.59 µM | AC50 [5]: > 30 µM

COLISTIN
AC50 [2]: 12 µM | AC50 (D(1A) dopamine receptor [6]): > 30 µM | AC50 [7]: > 30 µM | AC50 (Estrogen receptor): > 30 µM | AC50 [8]: > 30 µM | AC50 [9]: > 30 µM | AC50 [10]: > 30 µM | AC50 (D(1A) dopamine receptor [11]): > 30 µM | AC50 [12]: 11.2 µM | AC50 [13]: 26.6 µM | AC50 [14]: > 30 µM | AC50 (Mu-type opioid receptor): > 30 µM | AC50 (D(3) dopamine receptor): > 30 µM
